Laboratory results reported in patent US20240182456A1, “2-((4-((S)-2-(4-CHLORO-2-FLUOROPHENYL)-2-METHYLBENZO[D][1,3]DIOXOL-4-YL)PIPERIDIN-1-YL)METHYL)-1-(((S)-OXETAN-2-YL)METHYL)-1H-IMIDAZOLE DERIVATIVES AS ACTIVATORS OF THE GLP1 RECEPTOR FOR THE TREATMENT OF OBESITY” (Novartis AG, priority 2021, published 2024).

Assays:
human GLP1R = human GLP1R (Homo sapiens, UniProt P43220); experiment: Human GLP1R DERET internalization assay; format: cell-based; conditions: HEK293-SNAP-hGLP1R-GloSensor cells; for EC50: mean n=2; for Emax: relative to GLP1(7-36)
human GLP1R, sequence (P43220 24-463): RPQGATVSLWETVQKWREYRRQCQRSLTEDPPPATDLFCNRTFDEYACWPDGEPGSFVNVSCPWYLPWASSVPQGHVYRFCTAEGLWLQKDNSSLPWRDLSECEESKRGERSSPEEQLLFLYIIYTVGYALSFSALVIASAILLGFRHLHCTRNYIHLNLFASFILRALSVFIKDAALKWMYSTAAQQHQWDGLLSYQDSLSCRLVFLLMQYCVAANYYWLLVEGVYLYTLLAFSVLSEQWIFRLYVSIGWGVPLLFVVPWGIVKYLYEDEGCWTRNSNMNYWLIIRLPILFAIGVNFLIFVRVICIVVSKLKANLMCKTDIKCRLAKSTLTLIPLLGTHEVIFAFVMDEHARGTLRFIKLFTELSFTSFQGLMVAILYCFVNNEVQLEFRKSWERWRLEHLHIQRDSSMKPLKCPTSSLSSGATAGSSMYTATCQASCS
Description: (§1) Compounds 1 to 31 were tested in the following cellular assays that measure the intracellular cAMP concentration, beta-arrestin recruitment and receptor internalization. The cAMP is generated by the activation of GLP1R. The cAMP data obtained is shown in Table 1 (where S.E.M. is included, mean n=3 independent experiments+/−S.E.M). Beta-arrestin is recruited upon activation of GLP1R and the data obtained are shown in Table 2 (mean n=2 independent experiments, +/−S.D). The extent to which the GLP1R is internalized into the cell and away from the plasma membrane following activation is also shown in Table 2 (mean n=2 independent experiments, +/−S.D). EC50 for each assay is defined as the concentration of the compound that leads to half of the maximum response (after baseline correction). Emax is defined as the maximum response observed for the test compound, normalized to the maximum response observed for the endogenous ligand (GLP1(7-36)) to GLP1R.
The extent to which agonists internalize the human GLP1R was determined based on an optimized version of a RealTime FRET-based ‘DERET’ (Dissociation Enhanced Resonance Energy Transfer) assay. The technology relies on labeling of the SNAP-tagged GPCR with a SNAP-Lumi-Terbium (donor fluorophore, Cisbio, cat #SSNPTBD). The compounds are incubated with the cells over-expressing the GPCR of interest in the presence of an excess of fluorescein (acceptor fluorophore). When the GPCR is on the cell surface, the donor signal is quenched by the acceptor and the donor/acceptor ratio is low. As the GPCR internalizes, the donor signal is no longer quenched, and the acceptor is no longer excited so the donor/acceptor ratio increases.
HEK293-SNAP-hGLP1R-GloSensor cells (stably overexpressing SNAP-tagged hGLP1R) were seeded overnight in white 384-well poly-D-Lysine coated plates (Greiner Bio One, cat #781945) in regular DMEM growth medium (Gibco, cat #11965-092, 10% heat-inactivated FBS, 10 mM HEPES, 1× penicillin/streptomycin, 0.5 mg/mL geneticin (Gibco, cat #10131-035) and 0.25 mg/mL hygromycin B (Invitrogen, cat #10687010). On the assay day, cell medium was removed and 100 nM SNAP-Lumi-Tb reagent was added in Opti-MEM solution. The cells were incubated at 37° C. for 1 h. Cells were washed using a plate washer in assay buffer [1×HBSS (10× Gibco, cat #14065-056), 20 mM Hepes (Gibco, cat #15630-080), 1 mM CaCl2 (Fluka, cat #21114-1L), 1 mM MgCl2 (Ambion, cat #AM9530G) pH7.4], and 20 μL buffer with 0.1% BSA was added to each well. After leaving cells to equilibrate for ˜15 min at 37° C., 10 μL of Fluorescein (sodium salt, Sigma, cat #F6377, diluted in buffer) was added at 25 μM final concentration. To generate triplicate dose response curves, compounds were serially diluted 3-fold in assay buffer, then added to the cell assay plate to a final volume of 40 μL and final top concentrations starting at 30 μM. In the same plate and assay buffer as the tested compounds, a GLP1 (7-36) peptide (Bachem, cat #H-6795) control curve was included at a final top concentration of 1 μM in order to establish EC100. EC0 wells with buffer only were also included. The plate FRET fluorescence was measured immediately using a Perkin Elmer Envision with LANCE/DELFIA D400 single mirror, excitation filter X320, and emission filters M615_203 (donor emission) and M515 (acceptor emission), and then measured every 30 min. […] Plates were kept at 37° C. between reads. Data was expressed as the ratio of donor/acceptor emissions using Microsoft Excel and plotted in GraphPad Prism. In order to determine EC50 and Emax for internalization, data was calculated and expressed as percent of the GLP1 (7-36) EC100 control wells: [(sample signal−mean EC0 signal)/(mean EC100 of GLP1 (7-36) signal−mean EC0 signal)]*100 using Microsoft Excel. Curve fitting for EC50 determinations was performed using GraphPad Prism. The 4-parameter logistic model, Hill slope was used:
Y=Bottom+(Top−Bottom)/(1+10^((Log EC50−X)*Hill Slope)), […]

human GLP1R (hGLP1R) = human GLP1R (hGLP1R) (Homo sapiens, UniProt P43220); experiment: Human GLP1R cAMP agonist assay (GloSensor); format: cell-based; conditions: HEK293-SNAP-hGLP1R-GloSensor cells; for Emax: cAMP, normalized to GLP1(7-36) maximum response, read-out: Emax mean; for EC50: intracellular cAMP, mean n=3 where SEM is given
human GLP1R (hGLP1R), sequence (P43220 24-463): as above
Description: as §1
Human GLP1R cAMP Agonist Assay
The agonist activity of compounds was determined using the GloSensor™ cAMP Assay (Promega Corp.), which measures changes in the intracellular concentration of cAMP after ligand activation of GPCRs. The assay uses a biosensor encoded by pGloSensor™-22F cAMP plasmid (Promega, cat #E2301) with cAMP binding domains fused to a mutant form of Photinus pyralis luciferase. Binding to cAMP causes conformational changes that promote large increases in light output, which can be measured by a luminescence detector. HEK293-SNAP-hGLP1R-GloSensor cells stably overexpressing the human GLP1 receptor (hGLP1R) and pGloSensor™-22F were seeded in white 384-well poly-D-Lysine coated plates (Greiner Bio One, cat #781945) in CO2-independent media (Gibco cat #18045-088 with 1.0% FBS, 2 mM L-glutamine, penicillin and streptomycin) and incubated overnight at 37° C., 5% CO2 with humidity. The assay was started the following morning by adding an equal volume of CO2-independent media containing 4% v/v dilution of the GloSensor substrate (Promega, cat #E1291) to all wells. The cell plate was incubated at rt for 2 h in the dark. The Biomek 7 (Beckman Coulter) instrument was used for the liquid handling steps. To generate duplicate dose response curves, 3-fold serially diluted compounds were added in to the cell assay plate to a final volume of 60 μL with final concentrations ranging from 30 μM through 0.06 μM in CO2-independent media containing 0.1% BSA, 0.5 mM IBMX and 0.4% DMSO. In the same plate and assay buffer as the tested compounds, were EC100 control wells containing GLP1 (7-36) peptide (Bachem, cat #H-6795) at a final concentration of 2 nM and also EC0 control wells containing no peptide. This plate was incubated at rt in the dark for 12 min after adding the compounds to the cells. Luminescence was then measured with an Envision 2104 Multilabel reader with “TRF Light Unit, 337 nm” (PerkinElmer) using the Ultra-Sensitive protocol setting “384-well US luminescence detector” with the 384-well luminescence aperture, 0.1 seconds per well. cAMP activity was calculated as percent of the GLP1 (7-36) EC100 control wells: [(sample signal−mean EC0 signal)/(mean EC100 of GLP1 (7-36) signal−mean EC0 signal)}*100. Curve fitting for EC50 determinations was performed in the Helios module of the software package DAVID. The 4-parameter logistic model, Hill slope was used: y=Ainf+(A0−Ainf)/(1+(x/AC50)^Hill Slope) where y is the functional response; x is the compound concentration; A0 is the minimum value (at 0 dose); Ainf is the maximum value (at infinite dose); AC50 corresponds to the point of inflection (i.e. the point on the sigmoid shaped curve halfway between A0 and Ainf). The EC50 value was represented by the AC50 value calculated from Helios in μM. Emax is the maximal activity detected within the concentration range, derived from the fitted curve. […]

Structure (SMILES)	EC50 (human GLP1R) [nM]	Emax (human GLP1R) [%]	Emax (human GLP1R (hGLP1R)) [%]	EC50 (human GLP1R (hGLP1R)) [nM]
Cc1c(/C=C/C(=O)O)nc(CN2CCC(c3cccc4c3O[C@@](C)(c3ccc(Cl)cc3F)O4)CC2)n1C[C@@H]1CCO1 [Compound C-6, (E)-3-(2-((4-((S)-2-(4-chloro-2-fluorophenyl)-2-methylbenzo[d][1,3]dioxol-4-yl)piperidin-1-yl)methyl)-5-methyl-1-(((S)-oxetan-2-yl)methyl)-1H-imidazol-4-yl)acrylic acid]	> 30000	5	105	6.72
C[C@]1(c2ccc(Cl)cc2F)Oc2cccc(C3CCN(Cc4nc(C(F)(F)F)c(/C=C/C(=O)O)n4C[C@@H]4CCO4)CC3)c2O1 [Compound C-8, (E)-3-(2-((4-((S)-2-(4-chloro-2-fluorophenyl)-2-methylbenzo[d][1,3]dioxol-4-yl)piperidin-1-yl)methyl)-1-(((S)-oxetan-2-yl)methyl)-4-(trifluoromethyl)-1H-imidazol-5-yl)acrylic acid]	> 30000	9.5	108	0.0606
Cc1c(-c2cccc(C(=O)O)c2)nc(CN2CCC(c3cccc4c3O[C@@](C)(c3ccc(Cl)cc3F)O4)CC2)n1C[C@@H]1CCO1 [Compound C-10, 3-(2-((4-((S)-2-(4-chloro-2-fluorophenyl)-2-methylbenzo[d][1,3]dioxol-4-yl)piperidin-1-yl)methyl)-5-methyl-1-(((S)-oxetan-2-yl)methyl)-1H-imidazol-4-yl)benzoic acid]	> 30000	2	107	0.898
Cc1c(-c2cncc(C(=O)O)c2)nc(CN2CCC(c3cccc4c3O[C@@](C)(c3ccc(Cl)cc3F)O4)CC2)n1C[C@@H]1CCO1 [Compound C-12, 5-(2-((4-((S)-2-(4-chloro-2-fluorophenyl)-2-methylbenzo[d][1,3]dioxol-4-yl)piperidin-1-yl)methyl)-5-methyl-1-(((S)-oxetan-2-yl)methyl)-1H-imidazol-4-yl)nicotinic acid]	> 30000	10	113	0.6
Cc1nc(CN2CCC(c3cccc4c3O[C@@](C)(c3ccc(Cl)cc3F)O4)CC2)n(C[C@@H]2CCO2)c1CCC(=O)O [Compound C-14, 3-(2-((4-((S)-2-(4-chloro-2-fluorophenyl)-2-methylbenzo[d][1,3]dioxol-4-yl)piperidin-1-yl)methyl)-4-methyl-1-(((S)-oxetan-2-yl)methyl)-1H-imidazol-5-yl)propanoic acid]	3370	28	107	0.254
Cc1nc(CN2CCC(c3cccc4c3O[C@@](C)(c3ccc(Cl)cc3F)O4)CC2)n(C[C@@H]2CCO2)c1CC(F)C(=O)O (stereo partly drawn) [Compound C-15, 3-(2-((4-((S)-2-(4-chloro-2-fluorophenyl)-2-methylbenzo[d][1,3]dioxol-4-yl)piperidin-1-yl)methyl)-4-methyl-1-(((S)-oxetan-2-yl)methyl)-1H-imidazol-5-yl)-2-fluoropropanoic acid]	> 30000	41	109	0.253
Cc1nc(CN2CCC(c3cccc4c3O[C@@](C)(c3ccc(Cl)cc3F)O4)CC2)n(C[C@@H]2CCO2)c1C(=O)NCC(=O)O [Compound C-16, (2-((4-((S)-2-(4-chloro-2-fluorophenyl)-2-methylbenzo[d][1,3]dioxol-4-yl)piperidin-1-yl)methyl)-4-methyl-1-(((S)-oxetan-2-yl)methyl)-1H-imidazole-5-carbonyl)glycine]	> 30000	8	105	8.49
C[C@]1(c2ccc(Cl)cc2F)Oc2cccc(C3CCN(Cc4nc(F)c(/C=C/C(=O)O)n4C[C@@H]4CCO4)CC3)c2O1 [Compound C-18, (E)-3-(2-((4-((S)-2-(4-chloro-2-fluorophenyl)-2-methylbenzo[d][1,3]dioxol-4-yl)piperidin-1-yl)methyl)-4-fluoro-1-(((S)-oxetan-2-yl)methyl)-1H-imidazol-5-yl)acrylic acid]	197	90	116	0.0253
